The record followed here is patent US9388215B2, “Compositions and methods of using islet neogenesis peptides and analogs thereof” (SHENZHEN HIGHTIDE BIOPHARMACEUTICAL, LTD., priority 2013, dated 2016).

What is called AUC(0-t) is exposure summed from dosing to a finite time, without extrapolation to infinity. As usually defined, the Cmax is the highest concentration seen after dosing.

The format of series [1] is physicochemical. As to conditions: pH 7.4. As to the method: Peptide stability in buffers was tested for INGAP-PP and selected analogs. 10 mg/mL of Peptide 1, Peptide 12, Peptide 16, Peptide 29 or Peptide 31 was dissolved in isotonic buffers with pH ranging from 4.0 to 8.0. […] Peptide 12 and Peptide 29 were stable in an isotonic phosphate buffer (pH 7.4) for more than 90 days at 4° C. (there was no sign of degradation at 90 days sample check point), and 60 days at 25° C.

Series [2] is described as follows: Pharmacokinetics in mouse, subcutaneous bolus. As to conditions: male, C57BL/6, mouse, in vivo, sc, 25 mg/kg. Type of series: in vivo. As to the method:
(§1) After 7 days acclimation, male Sprague-Dawley (SD) rats weighing 210-250 g, or male C57BL/6 mice, weighing 19-24 g, in good health were used in the study. Peptide 1, Peptide 12 and Peptide 16 were dissolved in sterile normal saline and then they were injected via subcutaneous (sc) bolus or intravenous (iv) bolus at the dose level of 25 mg/kg. Three animals in each group were used for blood collection at the time point of 5 min, 15 min, 30 min, 1 h, 2 h, 4 h, 6 h, 8 h and 24 h post-dose. Blood samples (approximately 400 μL) were collected and placed into tubes containing EDTA-K2 and centrifuged at 8000 rpm for 6 minutes at 4° C. to separate plasma from the samples. The resulting plasma was stored frozen at −80° C. until being analyzed. Plasma concentrations of peptides were determined using tandem mass spectrometry (LC-MS/MS) analysis. A non-compartmental module of WinNonlin® Professional 5.2 (Pharsight; St. Louis Mo.), was used to calculate PK parameters. The abbreviation AUC(0-t) represents area under the curve from the time of dosing to the time of the last observation, the AUC(0-∞) represents area under the curve from the time of dosing to infinity, and the Cmax represents maximum concentration detected.

Series [3] is described as follows: Pharmacokinetics in rat, intravenous bolus. The series is classed as in vivo. As to conditions: male, Sprague-Dawley, rat, in vivo, iv, 25 mg/kg. The protocol: as §1
For series [4], the system named is normal C57BL/6J mice. In words: Induction of extra islet insulin positive β cell clusters (EIC) in normal C57BL/6J mice. Type of series: in vivo, mouse. As to conditions: analog 5 mg/kg vs INGAP-PP 50 mg/kg, 10 days. As to the method: After a 1-week acclimation, female C57BL/6J mice were randomly divided into 6 groups (n=5 per group). The control group received 10 mL/kg sterile normal saline via subcutaneous injection for 10 consecutive days. The other five groups received INGAP-PP (Peptide 1) or INGAP-PP analogs Peptide 12, Peptide 16, Peptide 29 or Peptide 31 at a dose of 50 mg/kg or 5 mg/kg per day, respectively, for the same period. On day 11, the pancreas was removed from each animal, cleared of fat and lymph nodes, weighed, and fixed in 10% neutral buffered formalin (NBF) for no longer than 24 hours before processing for morphometric analysis.
Immunohistochemistry analysis was used to assess the islet neogenic activities of peptides by measuring the number and area of extra islet insulin positive β cell clusters (EIC) of pancreatic tissues harvested from each individual group post 10 day treatment. EIC is indicative of islet neogenesis, as previously described by Lipsett and Finegood (Diabetes 51:1834-1841 (2002)).

For series [5], the system named is pancreatic islets. In words: Glucose-stimulated insulin secretion (GSIS) of isolated islets. Type of series: cell-based, rat. The following applies: 12.0 mM glucose; 10 μg/mL peptide or 100 nM GLP-1; 60 min; FIG. 8. As to the method: The pancreases were procured from male adult Sprague-Dawley (SD) rats. After 7 days acclimation, the animals were sacrificed by cervical dislocation and the entire pancreas was removed and digested with collagenase to isolate islets. After digestion, islets were maintained at 37° C. in RPMI 1640 (Carlsbad Calif., USA) pH 7.4, containing 10% (v/v) fetal calf serum, 1% penicillin/streptomycin, and 10 mM glucose in a humid atmosphere (5% CO2/95% O2), without the addition of any compound (control), or with the addition of 100 nM glucagon like peptide-1 (GLP-1); or 10 μg/mL Peptide 1, Peptide 12, or Peptide 16, as summarized in Table 4 below. Cultured islets were rinsed in Krebs-Ringer bicarbonate buffer (KRB), pH 7.4, previously gassed with a mixture of CO2/O2 (5/95%), and pre-incubated in 1.0 ml of KRB containing 0.5% (w/v) BSA and 1.5 mM glucose at 37° C. for 45 min. After this period, groups of 5 islets were incubated in 0.6 ml KRB with the addition of 1.5 or 12.0 mM glucose, with or without the addition of peptides for 60 min. At the end of the incubation period, aliquots of the medium were collected for insulin quantitation.

Series [6] is described as follows: Pharmacokinetics in SD rats after single subcutaneous dose (Example X). The series is classed as in vivo, rat. The following applies: sc, 25 mg/kg. The protocol: After 7 days acclimation, a total of 15 male Sprague-Dawley (SD) rats (body weight: 230 to 270 g) in good health from Sino-British SIPPR/BK Lab Animal Ltd, Shanghai, were used in the study. All peptides, Peptide 1, Peptide 12, Peptide 16, Peptide 29 or Peptide 31, were dissolved in sterile normal saline respectively to yield the desired final concentrations and were administered via single subcutaneous (sc) dose.
Three animals in each group were used for blood collection at the time point of 5 min, 15 min, 30 min, 1 h, 2 h, 4 h, 6 h, 8 h and 24 h post-dose. Blood samples (approximately 400 μL) were collected and placed into tubes containing EDTA-K2 (dipotassium ethylene diamine tetraacetic acid) and centrifuged at 8000 rpm for 6 minutes at 4° C. to separate plasma from the samples. The resulting plasma was stored frozen at −80° C. until being analyzed.
Plasma concentrations of peptides were determined using tandem mass spectrometry (LC-MS/MS) analysis. A non-compartmental module of WinNonlin® Professional 5.2 (Pharsight; St. Louis Mo.) was used to calculate PK parameters. AUC(0-t) represents area under the curve from the time of dosing to the time of the last observation, the AUC(0-∞) represents area under the curve from the time of dosing to infinity, and the Cmax represents maximum concentration detected.

A short description of series [7]: Peptide concentration in plasma and pancreas 30 min post dose. Type of series: in vivo, rat. The following applies: male, Sprague-Dawley, rat, in vivo, sc, 25 mg/kg, Peptide concentration. The protocol: To further characterize the pharmacokinetic (PK) properties of peptides, peptide concentration in pancreas—the target organ, was determined 30 min post dose. Briefly, INGAP-PP (Peptide 1), Peptide 12, or Peptide 31 was dissolved in sterile normal saline and then was administered via subcutaneous (sc) bolus at the dose level of 25 mg/kg to male Sprague-Dawley (SD) rats. Five animals in each group were used for blood and pancreas collection at the time point of 30 min post-dose. Blood samples (approximately 400 μL) were collected and placed into tubes containing EDTA-K2 and centrifuged at 8000 rpm for 6 minutes at 4° C. to separate plasma from the samples. After blood extraction and animal sacrifice, the pancreas was removed immediately from each animal, cleared of fat and lymph nodes, weighed, and placed into 5 fold volume of ice cold sterile normal saline with protease inhibitor cocktail (Merck Millipore, catalogue #539137) to homogenize with a homogenizer.
The peptide concentration of the plasma and pancreatic homogenate was determined immediately using tandem mass spectrometry (LC-MS/MS) analysis and the results are presented in Table 8.

Series [8] can be described thus: Pharmacokinetics in rat, subcutaneous bolus (Example VII). Type of series: in vivo. The following applies: male, Sprague-Dawley, rat, in vivo, sc, 25 mg/kg. The protocol: as §1
A short description of series [9]: Peptide stability in mouse plasma. Type of series: in vitro ADME. The following applies: 100 μg/mL, 37° C.; FIG. 3, 5, 14. The protocol:
(§2) The stability of peptides was also tested in mouse and human plasma. Briefly, a certain amount of peptides and eucatropine powder (positive control) was accurately weighed. Test compounds were dissolved in 50% methanol-water solution and diluted to 20 mg/mL, and eucatropine was dissolved in dimethylsulfoxide (DMSO) and diluted to 10 mM, as a stock solution. Eucatropine stock solution was diluted to 0.2 mM with DMSO as a working solution. A stop reagent was prepared containing 200 ng/mL midazolam and tolbutamide in acetonitrile. A volume of 300 μL of stop solution was added to each well of a 96-well deep-well plate placed on ice beforehand.
(§3) For the stability studies, peptides and eucatropine were spiked into plasma respectively, mixed well, and then 100 μL of each mixture solution was transferred into the pre-cooled stop reagent as 0 time point sample. The remaining mixtures were incubated in a 37° C. water bath with shaking at 100 rpm (n=2). The final incubation concentration was […] for eucatropine and 100 μg/mL for all test compounds.
(§4) At desired time points, 100 μL of incubation mixture was transferred to the stop reagent to precipitate proteins. Samples were vortexed and centrifuged at RCF 5000×g for 10 minutes, and supernatant was transferred to a test plate. The samples were analyzed by LC-MS/MS.
(§5) Slope was calculated by plotting the natural logarithm of the percentage of remaining amount of test compounds and time, and T1/2 was calculated in accordance with the following formula.
For stability in mouse plasma, the incubation time was 0, 5, 15, 30 and 60 min for Peptide 1 and eucatropine; 0, 15, 30, 60, 120, 240 and 480 min for Peptide 12, Peptide 16 and Peptide 29.
In another stability study in mouse plasma, the incubation time was 0, 30, 60 and 120 min for Peptide 2 and eucatropine; 0, 30, 60, 120, 240 and 960 min for Peptide 52 and Peptide 54.
as §2, with “tested in rat, mouse and” for “tested in mouse and”
(§6) For the stability studies, peptides and eucatropine were spiked into plasma respectively, mixed well, and then 100 μL of each mixture solution was transferred into the pre-cooled stop reagent as 0 time point sample. The remaining mixtures were incubated in a 37° C. water bath with shaking at 100 rpm (n=2). The final incubation concentration was 1 μM for eucatropine and 100 μg/mL for all test compounds.
For stability in mouse plasma, the incubation time was 0, 15, 30, 60 and 120 min for Peptide 1 and eucatropine; 0, 15, 30, 60, 120, and 240 min for Peptide 31.

The nature of series [10]: Peptide stability in human plasma. Type of series: in vitro ADME. The following applies: 100 μg/mL, 37° C.; FIG. 4, 15. The protocol: as §2, §3, §4, §5
For stability in human plasma, the incubation time was 0, 30, 60 and 120 min for Peptide 1, Peptide 12, Peptide 16 and eucatropine.
The stability of peptides was also tested in rat, mouse and human plasma. Briefly, a certain amount of peptides and eucatropine powder (positive control) was accurately weighed. Test compounds were dissolved in 50% methanol-water solution and diluted to 20 mg/mL, and eucatropine was dissolved in dimethylsulfoxide (DMSO) and diluted to 10 mM, as a stock solution. Eucatropine stock solution was diluted to 0.2 mM with DMSO as a working solution. […]

Series [11] in a line: Peptide stability in rat plasma. The series is classed as in vitro ADME. As to conditions: 100 μg/mL, 37° C.; FIG. 12, 13. The protocol:
as §2, with “tested in rat, mouse and” for “tested in mouse and”
as §6, §4, §5
For stability in rat plasma, the incubation time was 0, 15, 30, 60 and 120 min for Peptide 1 and eucatropine, and 0, 15, 30, 60, 120, and 240 min for Peptide 12, Peptide 16, Peptide 29 and Peptide 31.
In another stability study in rat plasma, the incubation time was 0, 30, 60 120 and 240 min for Peptide 2, Peptide 52, Peptide 64 and eucatropine.

Setting [12] is: male, Sprague-Dawley, rat, in vivo.

As for “Ac-IGLHDPSHGTLPAGS-OH [Peptide 12, Ac-IGLHDPSHGTLPAGS-OH]”, in [1], the “time stable in isotonic phosphate buffer (pH 7.4) at 4° C.” value is “more than 90 days”. For the same substance, the “time stable in isotonic phosphate buffer (pH 7.4) at 25° C.” value in series [1] amounted to 60 days. Besides, the AUC(0-inf) in series [2] came out at 5890 ng·h/mL; in [3] it was 12600 ng·h/mL; in series [6] (setting [12]) it was 11200 ± 1210 ng·h/mL; in series [8] it was 8480 ng·h/mL. For the same substance, the AUC(0-t) in series [2] turned out to be 5870 ng·h/mL; in series [3], 12600 ng·h/mL; in [6] (setting [12]), 11100 ± 1370 ng·h/mL; in series [8] it was 8420 ng·h/mL. In addition, the Cmax in series [2] is 11600 ng/mL; in series [3] it was 44300 ng/mL; in series [6] (setting [12]), 21400 ± 1350 ng/mL; in series [8], 14000 ng/mL. Besides, in [4], the “islet neogenesis efficacy relative to INGAP-PP” value is listed as “comparable or improved efficacy was achieved at a dose one tenth of INGAP-PP”. For the same substance, the “glucose-stimulated insulin release vs islets without peptide” value in [5] is on record as “released significantly more insulin than those cultured without the addition of peptides”. The level at 0.5 h in series [7] (Pancreas) came to 877 ± 261 ng/mL; in [7] (Plasma) it was 5370 ± 981 ng/mL.

Consider “Ac-IGLHDPSHGTLPAGS-NH2 [Peptide 29, Ac-IGLHDPSHGTLPAGS-NH2]”, for which, in series [1], the “time stable in isotonic phosphate buffer (pH 7.4) at 4° C.” value was “more than 90 days” and the “time stable in isotonic phosphate buffer (pH 7.4) at 25° C.” value is given as 60 days. Moreover, in [9], the “stability in mouse plasma” value is “exhibited good stability in mouse plasma and were more stable than INGAP-PP”. Besides, the AUC(0-t) in [6] (plasma, male Sprague-Dawley rat, subcutaneous, read-out: AUC(0-t)) stood at 14400 ± 1010 ng·h/mL. Besides, the AUC(0-inf) in [6] (plasma, male Sprague-Dawley rat, subcutaneous, read-out: AUC(0-∞)) came to 14400 ± 1000 ng·h/mL. In addition, in series [6] (plasma, male Sprague-Dawley rat, subcutaneous, read-out: Cmax), the maximum concentration (Cmax) was determined as 16300 ± 2520 ng/mL. The “stability in human plasma” value in series [10] was “exhibited good stability in human plasma and were significantly more stable than INGAP-PP”. The “stability in rat plasma” value in [11] was “exhibited good stability in rat plasma and were more stable than INGAP-PP”.
